Where a SMILES comes first, the peptide text is derived from it. The star is where a group is joined. Lauroyl = CCCCCCCCCCCC(=O)*; Decanoyl = CCCCCCCCCC(=O)*; Octanoyl = CCCCCCCC(=O)*
Legend:
[1] = tested on: human red blood cells (RBC); assay: Haemolytic activity assay; format: cell-based; settings: for Selectivity index (SI) G-: EC50/GM of Gram-negative strains; for Selectivity index (SI) G+: EC50/GM of Gram-positive strains; for Selectivity index (SI) Fungi: EC50/GM of fungi; for SI (selectivity index = EC50/GM): haemolytic EC50 over GM of MIC against all bacterial strains, Table 1; for RBC Tox. (EC50), haemolytic activity: human RBC, 1 h, 37 °C, concentration giving 50% haemolysis
Experimental: The synthetized lipopeptides were screened for haemolytic activity against human red blood cells (RBC), in concentrations ranging from 500 to 3.9 μM, following a previously described protocol. In brief, haemolysis was determined using a heparinizied (10 IU/mL) fraction of freshly drawn human blood. A second fraction of blood, which was collected in test tubes containing ethylenediaminetetraacetic acid (EDTA, Vacutest, KIMA, Arzergrande, Italy), was used for determination of the hematocrit (hct). Plasma was removed from heparinized blood by washing three times with prewarmed phosphate-buffered saline (PBS) before being adjusted to a hematocrit of 4%. Peptides dissolved in dimethyl sulfoxide (DMSO) were further diluted with PBS to a final DMSO content of ≤1%. Triton X-100 (Sigma-Aldrich, St. Louis, MO, USA), used at a final concentration of 0.1%, served as a positive control for 100% haemolysis, whereas 1% DMSO in PBS buffer served as a negative control where no toxicity was detected. Duplicates of test solutions and erythrocytes, with 1% hct final concentration, were prepared in a 96-well polypropylene V-bottom plate (Nunc, Fischer scientific, Oslo, Norway). They were incubated under agitation at 37 °C and 800 rpm for 1 h. After centrifugation (5 min, 3000× g), 100 µL from each well were transferred to a flat-bottomed 96-well plate and absorbance was measured at 545 nm with a microplate reader (SpectraMax 190, Molecular Devices, San Jose, CA, USA). After subtracting PBS background, the percentage of haemolysis was calculated as the ratio of the absorbance in the peptide-treated and surfactant-treated samples. Three independent experiments were performed, and EC50 (the concentration giving 50% haemolysis) values are presented as averages.

all bacterial strains = assay: Antibacterial MIC assay, all bacterial strains together (range or geometric mean); format: cell-based; settings: for GM (geometric mean of the MIC values against all bacterial strains): Table 1, six bacterial strains; for GM of MIC Tot. bact.: Table S3, all bacterial test strains, MIC >256 set to 256
Experimental: The selectivity index (SI) of the peptides towards bacteria over eukaryotic cells was calculated using the geometric mean (GM) of the MIC values against all bacterial test strains, according to the method by Orlov et al.. The SI for each peptide was determined as the ratio of the RBC-EC50 value by the corresponding GM value. Larger SI values indicate greater selectivity for microbial cells. […] In general, the SI was higher against the Gram-positive bacteral strains than the Gram-negative strains. (Table S3). Overall, peptides displaying EC50 < 100 µg/mL were considered too haemolytic to be of interest for further exploration.
(§1) All cyclic and linear peptides were screened for antibacterial activity against four Gram-positive strains: B. subtilis (Bs, ATCC 23857), C. glutamicum (Cg, ATCC 13032), S. aureus (Sa, ATCC 9144) and S. epidermidis RP62A (Se, ATCC 35984), and two Gram-negative strains: E. coli (Ec, ATCC 25922) and P. aeruginosa (Pa, ATCC 27853). The activity was assessed using a broth microdilution assay according to a modified CLSI-based method. Briefly, overnight bacterial cultures were grown in Mueller–Hinton (MH) broth medium (Difco Laboratories, Detroit, MI, USA) for 2 h at room temperature. The optical density (OD600) was measured, and the bacterial suspensions were adjusted to 2.5–3 × 10^4 CFU/mL in MH medium. The bacterial suspension (50 µL) was distributed in 96-well plates (Nunc, Roskilde, Denmark) preloaded with two-fold dilution series (256 to 1 µg/mL) of peptide solutions (50 µL), giving a final well volume of 100 µL. The microplates were incubated in an EnVision 2103 microplate reader (PerkinElmer, Llantrisant, UK) at 35 °C, with OD595 recorded every hour for 24 h. MIC was defined as the lowest concentration of peptides showing an optical density less than 10% of the negative (growth) control, consisting of bacterial suspension and water. Polymyxin B sulfate (Sigma-Aldrich, St. Louis, MO, USA) and chlorhexidine acetate (CHX, Fresenius Kabi, Halden, Norway), both with concentrations ranging from 12.5 to 0.09 μg/mL, served as positive (growth inhibition) controls. All peptides were tested in triplicate.

[2] = tested on: B. subtilis (Bs, ATCC 23857); assay: microbe, parasite or virus in culture; format: cell-based, Bacillus subtilis; settings: ATCC 23857, 24 h
Experimental: as §1

[3] = tested on: S. aureus (Sa, ATCC 9144); assay: microbe, parasite or virus in culture; format: cell-based, Staphylococcus aureus; settings: ATCC 9144, 24 h
Experimental: as §1

[4] = tested on: Gram-negative bacterial strains (E. coli and P. aeruginosa); assay: Antibacterial MIC assay, Gram-negative strains together (range or geometric mean); format: cell-based; settings: Table S3; MIC >256 set to 256
Experimental: as §1

[5] = tested on: C. glutamicum (Cg, ATCC 13032); assay: microbe, parasite or virus in culture; format: cell-based, Corynebacterium glutamicum; settings: ATCC 13032, 24 h
Experimental: as §1

[6] = tested on: fungi (A. pullulans, C. albicans, Rhodotorula sp.); assay: Antifungal MIC assay, all fungi together (range or geometric mean); format: cell-based; settings: Table S3; MIC >128 set to 128
Experimental: (§2) The synthesized peptides were screened for antifungal activity against the molds A. pullulans (Ap) and Rhodotorula sp. (Rh) (both obtained from Professor Arne Tronsmo, The Norwegian University of Life Sciences, Ås, Norway) and the yeast C. albicans (Ca, ATCC 10231) as previously described. In short, fungal spores were grown in potato dextrose broth media (Difco) containing 2% D(+)-glucose (Merck, Darmstadt, Germany) at 25–30 °C while shaking at 200 rpm overnight. The cultures were diluted with a dextrose media containing glucose to a concentration of approx. 4 × 10^5 spores/mL. Aliquots of the cultures (50 µL) were transferred to 96 well microtiter plates preloaded with the synthetic peptides (50 µL) in two-fold serial dilutions (256 to 1 µg/mL). Polymyxin B and CHX (both with concentrations ranging from 12.5 to 0.09 μg/mL) served as positive antibiotic controls. The microtiter plates containing the fungal spores and the test peptides were incubated at room temperature for 48 h and OD600 was recorded using a Synergy H1 Hybrid microplate reader system (BioTek, Winooski, VT, USA). MIC was defined as the lowest peptide concentration showing an optical density less than 10% of the negative (growth) control. All experiments were performed in triplicate.

Rhodotorula sp. (Rh) = assay: microbe, parasite or virus in culture; format: cell-based; settings: 48 h
Experimental: as §2

A. pullulans (Ap) = assay: microbe, parasite or virus in culture; format: cell-based, Aurobasidium pollulans; settings: 48 h
Experimental: as §2

E. coli (Ec, ATCC 25922) = assay: microbe, parasite or virus in culture; format: cell-based, Escherichia coli; settings: ATCC 25922, 24 h
Experimental: as §1

[7] = tested on: P. aeruginosa (Pa, ATCC 27853); assay: microbe, parasite or virus in culture; format: cell-based, Pseudomonas aeruginosa; settings: ATCC 27853, 24 h
Experimental: as §1

[8] = tested on: S. epidermidis RP62A (Se, ATCC 35984); assay: microbe, parasite or virus in culture; format: cell-based, Staphylococcus epidermidis; settings: ATCC 35984, 24 h
Experimental: as §1

[9] = tested on: C. albicans (Ca, ATCC 10231); assay: microbe, parasite or virus in culture; format: cell-based, Candida albicans; settings: ATCC 10231, 48 h
Experimental: as §2

[10] = tested on: Gram-positive bacterial strains; settings: Table S3; MIC >256 set to 256
Experimental: as §1

[11] = Table S3, highest tested concentration used where EC50 above it

Row | Compound | Selectivity index (SI) G- [1, 11] | Selectivity index (SI) G+ [1, 11] | Selectivity index (SI) Fungi [1, 11] | SI (selectivity index = EC50/GM) [1] | RBC Tox. (EC50), haemolytic activity [1] [µg/mL] | GM (geometric mean of the MIC values against all bacterial strains) (all bacterial strains) [µg/mL] | GM of MIC Tot. bact. (all bacterial strains) [µg/mL] | Antimicrobial Activity (MIC) Gram + Bs [2] [µg/mL] | Antimicrobial Activity (MIC) Gram + Sa [3] [µg/mL] | GM of MIC G- [4] [µg/mL] | Antimicrobial Activity (MIC) Gram + Cg [5] [µg/mL] | GM of MIC Fungi [6] [µg/mL] | Antimicrobial Activity (MIC) Fungi Rh (Rhodotorula sp. (Rh)) [µg/mL] | Antimicrobial Activity (MIC) Fungi Ap (A. pullulans (Ap)) [µg/mL] | Antimicrobial Activity (MIC) Gram − Ec (E. coli (Ec, ATCC 25922)) [µg/mL] | Antimicrobial Activity (MIC) Gram − Pa [7] [µg/mL] | Antimicrobial Activity (MIC) Gram + Se [8] [µg/mL] | Antimicrobial Activity (MIC) Fungi Ca [9] [µg/mL] | GM of MIC G+ [10] [µg/mL] | Selectivity index (SI) Tot. bact. ([1]; Table S3, EC50/GM of all bacterial strains, highest tested concentration used where EC50 above it)
1 | CCCCCCCC(=O)N[C@@H](CS)C(=O)NCC(=O)N[C@@H](CCCNC(=N)N)C(=O)N[C@@H](CCCNC(=N)N)C(=O)N[C@@H](Cc1c[nH]c2ccccc12)C(=O)NCC(=O)N[C@@H](Cc1c[nH]c2ccccc12)C(=O)N[C@@H](Cc1c[nH]c2ccccc12)C(=O)N[C@@H](CCCNC(=N)N)C(=O)N[C@@H](CS)C(=O)N[C@@H](CCCNC(=N)N)C(=O)N[C@@H](CC(C)C)C(N)=O [Peptide C8-Turg-6, C8- CGRRWGWWRC RL-NH2] (Octanoyl-CGRRWGWWRCRL-NH2) | 3 | 8 | 1 | 6 | 54 | 9 | 9 | 4 | 16 | 16 | 4 | 102 | 128 | 128 | 8 | 32 | 8 | 64 | 7 | –
2 | CCCCCCCCCCCC(=O)N[C@@H](CS)C(=O)NCC(=O)N[C@@H](CCCCN)C(=O)N[C@@H](CCCCN)C(=O)N1CCC[C@H]1C(=O)NCC(=O)NCC(=O)N[C@@H](Cc1c[nH]c2ccccc12)C(=O)N[C@@H](CCCCN)C(=O)N[C@@H](CS)C(=O)N[C@@H](CCCCN)C(=O)N[C@@H](CC(C)C)C(N)=O [Peptide C12-Turg-1, C12- CGKKPGGWKC KL-NH2] (Lauroyl-CGKKPGGWKCKL-NH2) | > 86 | > 204 | > 38 | – | >971 | 6 | 6 | 4 | 8 | 11 | 4 | 25 | 8 | 32 | 8 | 16 | 4 | 64 | 5 | –
3 | CCCCCCCCCC(=O)N[C@@H](CS)C(=O)NCC(=O)N[C@@H](CCCNC(=N)N)C(=O)N[C@@H](CCCNC(=N)N)C(=O)N[C@@H](Cc1c[nH]c2ccccc12)C(=O)NCC(=O)N[C@@H](Cc1c[nH]c2ccccc12)C(=O)N[C@@H](Cc1c[nH]c2ccccc12)C(=O)N[C@@H](CCCNC(=N)N)C(=O)N[C@@H](CS)C(=O)N[C@@H](CCCNC(=N)N)C(=O)N[C@@H](CC(C)C)C(N)=O [Peptide C10-Turg-6, C10- CGRRWGWWRC RL-NH2] (Decanoyl-CGRRWGWWRCRL-NH2) | – | 1 | – | – | 21 | 23 | 23 | 8 | – | 45 | 16 | 102 | 128 | 128 | – | – | 16 | 64 | 16 | 1
4 | CCCCCCCCCCCC(=O)N[C@@H](CS)C(=O)NCC(=O)N[C@@H](CCCNC(=N)N)C(=O)N[C@@H](CCCNC(=N)N)C(=O)N[C@@H](Cc1c[nH]c2ccccc12)C(=O)NCC(=O)N[C@@H](Cc1c[nH]c2ccccc12)C(=O)N[C@@H](Cc1c[nH]c2ccccc12)C(=O)N[C@@H](CCCNC(=N)N)C(=O)N[C@@H](CS)C(=O)N[C@@H](CCCNC(=N)N)C(=O)N[C@@H](CC(C)C)C(N)=O [Peptide C12-Turg-6, C12- CGRRWGWWRC RL-NH2] (Lauroyl-CGRRWGWWRCRL-NH2) | – | 2 | – | 1 | 39 | 32 | 32 | 16 | – | – | 16 | – | >128 | 128 | – | – | 16 | 64 | 19 | –

From publication PMC9696794, “Synthesis and Antimicrobial Activity of Short Analogues of the Marine Antimicrobial Peptide Turgencin A: Effects of SAR Optimizations, Cys-Cys Cyclization and Lipopeptide Modifications” (International Journal of Molecular Sciences, 2022)
